In PMC6979384, “Characterization of the plant homeodomain (PHD) reader family for their histone tail interactions” (Epigenetics & Chromatin, 2020):

Key:
Experiment in all cases: Histone peptide microarray
Type in all cases: binding, human
Settings in all cases: histone peptide array, arrays performed twice, n of 4
[1] = tested on: PHF21A
How it was run: (§1)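 Using an optimized microarray protocol, purified GST-tagged PHD fingers were incubated at 0.5 μM on 293 histone peptides with single or multiple modifications, and array signal was recorded as the average of 4 replicates.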

[2] = tested on: PHF13
How it was run: as §1

[3] = tested on: KDM5A (1)
How it was run: as §1

[4] = tested on: PHRF1 (RP)
How it was run: as §1

[5] = tested on: ING2
How it was run: as §1

[6] = tested on: CHD5 (PPCC)
How it was run: as §1

[7] = tested on: DPF2 (PPC2W2)
How it was run: as §1

[8] = tested on: MORC3 (CW)
How it was run: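 A peptide microarray holding 293 synthetic histone peptides with individual or combinatorial modifications was probed with each GST-PHD protein at 0.5 μM. Values represent mean intensity (±SD) from four replicates.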

[9] = tested on: TRIM66 (PB)
How it was run: as §1

[10] = tested on: BPTF (PB)
How it was run: as §1

[11] = tested on: ING5
How it was run: as §1

[12] = tested on: KDM5B (1)
How it was run: as §1

[13] = tested on: SP140L
How it was run: as §1

[14] = tested on: AIRE (PP)
How it was run: as §1

[15] = tested on: KDM7A
How it was run: as §1

[16] = tested on: DIDO1
How it was run: as §1

[17] = tested on: BAZ2B
How it was run: as §1

[18] = tested on: KDM4C (TTP)
How it was run: as §1

[19] = tested on: TAF3
How it was run: as §1

[20] = tested on: ING4
How it was run: as §1

[21] = tested on: PHF8
How it was run: as §1

[22] = tested on: KDM5A (3)
How it was run: as §1

[23] = tested on: ING1
How it was run: as §1

[24] = tested on: CHD4 (PPCC)
How it was run: as §1

[25] = tested on: KDM5B (3)
How it was run: as §1

[26] = tested on: PHF2
How it was run: as §1

[27] = tested on: PHF23
How it was run: as §1

[28] = tested on: CHD5 (PCC)
How it was run: as §1

[29] = tested on: ING3
How it was run: as §1

[30] = tested on: RAG2
How it was run: as §1

[31] = tested on: MLL5
How it was run: as §1

[32] = GST-tagged reader, PPCC = Dual PHD + Dual Chromodomain
[33] = GST-tagged reader, PPC2W2 = Dual PHD + C2W2-type Zn-finger
[34] = GST-tagged reader, CW = CW-type Zn-finger
[35] = GST-tagged reader, PB = PHD + Bromodomain
[36] = GST-tagged reader, TTP = Tandem Tudor domain + PHD
[37] = GST-tagged reader, PCC = PHD + Dual Chromodomain
[38] = GST-tagged CHD5 (PPCC = Dual PHD + Dual Chromodomain)
[39] = GST-tagged DPF2 (PPC2W2 = Dual PHD + C2W2-type Zn-finger)
[40] = GST-tagged MORC3 (CW = CW-type Zn-finger)
[41] = GST-tagged TRIM66 (PB = PHD + Bromodomain)
[42] = GST-tagged BPTF (PB = PHD + Bromodomain)
[43] = GST-tagged KDM4C (TTP = Tandem Tudor domain + PHD)
[44] = GST-tagged CHD4 (PPCC = Dual PHD + Dual Chromodomain)
[45] = GST-tagged CHD5 (PCC = PHD + Dual Chromodomain)

## H4 (1-24): H4 1-24
[1]; GST-tagged reader
  Array Heatmap signal, PHF21A: 0.4744
[2]; GST-tagged reader
  Array Heatmap signal, PHF13: 0.6132
[3]; GST-tagged reader
  Array Heatmap signal, KDM5A (1): 0.4479
[4]; GST-tagged reader
  Array Heatmap signal, PHRF1 (RP): 0.5307
[5]; GST-tagged reader
  Array Heatmap signal, ING2: 0.5969
[6]; [32]
  Array Heatmap signal, CHD5 (PPCC): 0.5427
[7]; [33]
  Array Heatmap signal, DPF2 (PPC2W2): 0.6876
[8]; [34]
  Array Heatmap signal, MORC3 (CW): 0.3968
[9]; [35]
  Array Heatmap signal, TRIM66 (PB): 0.5969
[10]; [35]
  Array Heatmap signal, BPTF (PB): 0.3511
[11]; GST-tagged reader
  Array Heatmap signal, ING5: 0.3526
[12]; GST-tagged reader
  Array Heatmap signal, KDM5B (1): 0.6708
[13]; GST-tagged reader
  Array Heatmap signal, SP140L: 0.3819
[14]; GST-tagged reader
  Array Heatmap signal, AIRE (PP): 0.4377
[15]; GST-tagged reader
  Array Heatmap signal, KDM7A: 0.3276
[16]; GST-tagged reader
  Array Heatmap signal, DIDO1: 0.6429
[17]; GST-tagged reader
  Array Heatmap signal, BAZ2B: 0.4426
[18]; [36]
  Array Heatmap signal, KDM4C (TTP): 0.4748
[19]; GST-tagged reader
  Array Heatmap signal, TAF3: 0.2583
[20]; GST-tagged reader
  Array Heatmap signal, ING4: 0.4561
[21]; GST-tagged reader
  Array Heatmap signal, PHF8: 0.3446
[22]; GST-tagged reader
  Array Heatmap signal, KDM5A (3): 0.4381
[23]; GST-tagged reader
  Array Heatmap signal, ING1: 0.5158
[24]; [32]
  Array Heatmap signal, CHD4 (PPCC): 0.5779
[25]; GST-tagged reader
  Array Heatmap signal, KDM5B (3): 0.458
[26]; GST-tagged reader
  Array Heatmap signal, PHF2: 0.4794
[27]; GST-tagged reader
  Array Heatmap signal, PHF23: 0.5274
[28]; [37]
  Array Heatmap signal, CHD5 (PCC): 0.7379
[29]; GST-tagged reader
  Array Heatmap signal, ING3: 0.4908
[30]; GST-tagged reader
  Array Heatmap signal, RAG2: 0.2506
[31]; GST-tagged reader
  Array Heatmap signal, MLL5: 0.528

## H4 (11-27): H4 11-27
[1]; GST-tagged PHF21A
  Array Heatmap signal, PHF21A: 0.4899
[2]; GST-tagged PHF13
  Array Heatmap signal, PHF13: 0.6301
[3]; GST-tagged KDM5A (1)
  Array Heatmap signal, KDM5A (1): 0.4724
[4]; GST-tagged PHRF1 (RP)
  Array Heatmap signal, PHRF1 (RP): 0.4565
[5]; GST-tagged ING2
  Array Heatmap signal, ING2: 0.6025
[6]; [38]
  Array Heatmap signal, CHD5 (PPCC): 0.5646
[7]; [39]
  Array Heatmap signal, DPF2 (PPC2W2): 0.705
[8]; [40]
  Array Heatmap signal, MORC3 (CW): 0.3632
[9]; [41]
  Array Heatmap signal, TRIM66 (PB): 0.6367
[10]; [42]
  Array Heatmap signal, BPTF (PB): 0.3518
[11]; GST-tagged ING5
  Array Heatmap signal, ING5: 0.3644
[12]; GST-tagged KDM5B (1)
  Array Heatmap signal, KDM5B (1): 0.652
[13]; GST-tagged SP140L
  Array Heatmap signal, SP140L: 0.3427
[14]; GST-tagged AIRE (PP)
  Array Heatmap signal, AIRE (PP): 0.4611
[15]; GST-tagged KDM7A
  Array Heatmap signal, KDM7A: 0.3743
[16]; GST-tagged DIDO1
  Array Heatmap signal, DIDO1: 0.7393
[17]; GST-tagged BAZ2B
  Array Heatmap signal, BAZ2B: 0.4866
[18]; [43]
  Array Heatmap signal, KDM4C (TTP): 0.4895
[19]; GST-tagged TAF3
  Array Heatmap signal, TAF3: 0.2827
[20]; GST-tagged ING4
  Array Heatmap signal, ING4: 0.4682
[21]; GST-tagged PHF8
  Array Heatmap signal, PHF8: 0.3468
[22]; GST-tagged KDM5A (3)
  Array Heatmap signal, KDM5A (3): 0.4231
[23]; GST-tagged ING1
  Array Heatmap signal, ING1: 0.5543
[24]; [44]
  Array Heatmap signal, CHD4 (PPCC): 0.6032
[25]; GST-tagged KDM5B (3)
  Array Heatmap signal, KDM5B (3): 0.4786
[26]; GST-tagged PHF2
  Array Heatmap signal, PHF2: 0.5451
[27]; GST-tagged PHF23
  Array Heatmap signal, PHF23: 0.5647
[28]; [45]
  Array Heatmap signal, CHD5 (PCC): 0.8335
[29]; GST-tagged ING3
  Array Heatmap signal, ING3: 0.5001
[30]; GST-tagged RAG2
  Array Heatmap signal, RAG2: 0.2544
[31]; GST-tagged MLL5
  Array Heatmap signal, MLL5: 0.5751

## H4K5K8but (1-23): H4 1-23
[1]; GST-tagged reader
  Array Heatmap signal, PHF21A: 0.5071
[2]; GST-tagged reader
  Array Heatmap signal, PHF13: 0.6376
[3]; GST-tagged reader
  Array Heatmap signal, KDM5A (1): 0.515
[4]; GST-tagged reader
  Array Heatmap signal, PHRF1 (RP): 0.4216
[5]; GST-tagged reader
  Array Heatmap signal, ING2: 0.5955
[6]; [32]
  Array Heatmap signal, CHD5 (PPCC): 0.592
[7]; [33]
  Array Heatmap signal, DPF2 (PPC2W2): 0.658
[8]; [34]
  Array Heatmap signal, MORC3 (CW): 0.3933
[9]; [35]
  Array Heatmap signal, TRIM66 (PB): 0.5587
[10]; [35]
  Array Heatmap signal, BPTF (PB): 0.3688
[11]; GST-tagged reader
  Array Heatmap signal, ING5: 0.3968
[12]; GST-tagged reader
  Array Heatmap signal, KDM5B (1): 0.7062
[13]; GST-tagged reader
  Array Heatmap signal, SP140L: 0.399
[14]; GST-tagged reader
  Array Heatmap signal, AIRE (PP): 0.5575
[15]; GST-tagged reader
  Array Heatmap signal, KDM7A: 0.4497
[16]; GST-tagged reader
  Array Heatmap signal, DIDO1: 0.6112
[17]; GST-tagged reader
  Array Heatmap signal, BAZ2B: 0.52
[18]; [36]
  Array Heatmap signal, KDM4C (TTP): 0.558
[19]; GST-tagged reader
  Array Heatmap signal, TAF3: 0.2895
[20]; GST-tagged reader
  Array Heatmap signal, ING4: 0.4968
[21]; GST-tagged reader
  Array Heatmap signal, PHF8: 0.4044
[22]; GST-tagged reader
  Array Heatmap signal, KDM5A (3): 0.457
[23]; GST-tagged reader
  Array Heatmap signal, ING1: 0.5231
[24]; [32]
  Array Heatmap signal, CHD4 (PPCC): 0.6049
[25]; GST-tagged reader
  Array Heatmap signal, KDM5B (3): 0.5218
[26]; GST-tagged reader
  Array Heatmap signal, PHF2: 0.4396
[27]; GST-tagged reader
  Array Heatmap signal, PHF23: 0.5226
[28]; [37]
  Array Heatmap signal, CHD5 (PCC): 0.8285
[29]; GST-tagged reader
  Array Heatmap signal, ING3: 0.4809
[30]; GST-tagged reader
  Array Heatmap signal, RAG2: 0.2516
[31]; GST-tagged reader
  Array Heatmap signal, MLL5: 0.5399

## H4K5ac + K8ac + K12ac + K16ac: H4 1-23
[1]; GST-tagged PHF21A
  Array Heatmap signal, PHF21A: 0.4657
[2]; GST-tagged PHF13
  Array Heatmap signal, PHF13: 0.598
[3]; GST-tagged KDM5A (1)
  Array Heatmap signal, KDM5A (1): 0.4894
[4]; GST-tagged PHRF1 (RP)
  Array Heatmap signal, PHRF1 (RP): 0.436
[5]; GST-tagged ING2
  Array Heatmap signal, ING2: 0.572
[6]; [38]
  Array Heatmap signal, CHD5 (PPCC): 0.5534
[7]; [39]
  Array Heatmap signal, DPF2 (PPC2W2): 0.6508
[8]; [40]
  Array Heatmap signal, MORC3 (CW): 0.3746
[9]; [41]
  Array Heatmap signal, TRIM66 (PB): 0.6818
[10]; [42]
  Array Heatmap signal, BPTF (PB): 0.4178
[11]; GST-tagged ING5
  Array Heatmap signal, ING5: 0.371
[12]; GST-tagged KDM5B (1)
  Array Heatmap signal, KDM5B (1): 0.7197
[13]; GST-tagged SP140L
  Array Heatmap signal, SP140L: 0.3494
[14]; GST-tagged AIRE (PP)
  Array Heatmap signal, AIRE (PP): 0.5646
[15]; GST-tagged KDM7A
  Array Heatmap signal, KDM7A: 0.4726
[16]; GST-tagged DIDO1
  Array Heatmap signal, DIDO1: 0.6106
[17]; GST-tagged BAZ2B
  Array Heatmap signal, BAZ2B: 0.5369
[18]; [43]
  Array Heatmap signal, KDM4C (TTP): 0.5368
[19]; GST-tagged TAF3
  Array Heatmap signal, TAF3: 0.2729
[20]; GST-tagged ING4
  Array Heatmap signal, ING4: 0.4555
[21]; GST-tagged PHF8
  Array Heatmap signal, PHF8: 0.3604
[22]; GST-tagged KDM5A (3)
  Array Heatmap signal, KDM5A (3): 0.4106
[23]; GST-tagged ING1
  Array Heatmap signal, ING1: 0.4878
[24]; [44]
  Array Heatmap signal, CHD4 (PPCC): 0.5585
[25]; GST-tagged KDM5B (3)
  Array Heatmap signal, KDM5B (3): 0.5025
[26]; GST-tagged PHF2
  Array Heatmap signal, PHF2: 0.443
[27]; GST-tagged PHF23
  Array Heatmap signal, PHF23: 0.4802
[28]; [45]
  Array Heatmap signal, CHD5 (PCC): 0.8346
[29]; GST-tagged ING3
  Array Heatmap signal, ING3: 0.4391
[30]; GST-tagged RAG2
  Array Heatmap signal, RAG2: 0.2398
[31]; GST-tagged MLL5
  Array Heatmap signal, MLL5: 0.5322
